What all share (assay type): cell-based
Test [1] has as its target T1, human TLR7 (Homo sapiens, UniProt Q9NYK1).
T1 construct: host or cells: HEK-Blue cells
T1 sequence (Q9NYK1 27-1049): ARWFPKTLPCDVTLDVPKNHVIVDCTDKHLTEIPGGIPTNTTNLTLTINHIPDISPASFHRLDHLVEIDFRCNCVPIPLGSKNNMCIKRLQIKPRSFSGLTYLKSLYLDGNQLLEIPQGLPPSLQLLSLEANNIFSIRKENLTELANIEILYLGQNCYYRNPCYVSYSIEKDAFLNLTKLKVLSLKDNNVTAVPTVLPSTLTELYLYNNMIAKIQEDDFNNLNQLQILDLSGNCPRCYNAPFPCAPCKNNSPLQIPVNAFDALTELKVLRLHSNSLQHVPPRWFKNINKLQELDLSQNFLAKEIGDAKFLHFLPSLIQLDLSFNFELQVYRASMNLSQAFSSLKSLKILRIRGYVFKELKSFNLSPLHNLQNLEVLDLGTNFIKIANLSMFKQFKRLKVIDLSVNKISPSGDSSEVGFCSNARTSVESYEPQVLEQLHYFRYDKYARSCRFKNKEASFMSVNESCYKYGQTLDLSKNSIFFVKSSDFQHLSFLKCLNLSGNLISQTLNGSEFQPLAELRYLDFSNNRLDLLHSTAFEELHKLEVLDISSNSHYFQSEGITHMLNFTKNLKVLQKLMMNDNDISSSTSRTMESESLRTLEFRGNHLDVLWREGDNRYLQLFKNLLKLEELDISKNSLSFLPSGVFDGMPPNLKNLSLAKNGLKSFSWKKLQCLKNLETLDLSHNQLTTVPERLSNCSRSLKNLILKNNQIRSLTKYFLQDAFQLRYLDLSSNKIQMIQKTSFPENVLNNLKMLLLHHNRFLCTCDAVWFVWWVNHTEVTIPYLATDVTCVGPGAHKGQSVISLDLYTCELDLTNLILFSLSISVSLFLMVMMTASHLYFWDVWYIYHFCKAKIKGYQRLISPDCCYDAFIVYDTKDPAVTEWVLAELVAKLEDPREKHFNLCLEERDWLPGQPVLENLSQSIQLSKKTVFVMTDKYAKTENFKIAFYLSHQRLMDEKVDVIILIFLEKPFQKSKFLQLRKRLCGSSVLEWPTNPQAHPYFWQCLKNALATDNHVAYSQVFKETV
Briefly: TLR7 inhibition reporter assay (HEK-Blue cells, SEAP reporter, gardiquimod stimulation). Conditions: HEK-Blue cells overexpressing human TLR7, SEAP reporter, gardiquimod 7.5 μM; read-out: TLR7 IC50. Put shortly:
(§1)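 Dose–response from 0.05 nM to 50 μM was run in HEK-Blue human TLR7, TLR8 and TLR9 reporter cells. After 30 min at room temperature with compound, ligand was added (TLR7 gardiquimod 7.5 μM; TLR8 R848 15.9 μM; TLR9 ODN2006 5 nM) and SEAP measured next day, at 22 h.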

Test [2] deals with T2, human TLR8 (Homo sapiens, UniProt Q9NR97).
T2 construct: host or cells: HEK-Blue cells
T2 sequence (Q9NR97 27-1041): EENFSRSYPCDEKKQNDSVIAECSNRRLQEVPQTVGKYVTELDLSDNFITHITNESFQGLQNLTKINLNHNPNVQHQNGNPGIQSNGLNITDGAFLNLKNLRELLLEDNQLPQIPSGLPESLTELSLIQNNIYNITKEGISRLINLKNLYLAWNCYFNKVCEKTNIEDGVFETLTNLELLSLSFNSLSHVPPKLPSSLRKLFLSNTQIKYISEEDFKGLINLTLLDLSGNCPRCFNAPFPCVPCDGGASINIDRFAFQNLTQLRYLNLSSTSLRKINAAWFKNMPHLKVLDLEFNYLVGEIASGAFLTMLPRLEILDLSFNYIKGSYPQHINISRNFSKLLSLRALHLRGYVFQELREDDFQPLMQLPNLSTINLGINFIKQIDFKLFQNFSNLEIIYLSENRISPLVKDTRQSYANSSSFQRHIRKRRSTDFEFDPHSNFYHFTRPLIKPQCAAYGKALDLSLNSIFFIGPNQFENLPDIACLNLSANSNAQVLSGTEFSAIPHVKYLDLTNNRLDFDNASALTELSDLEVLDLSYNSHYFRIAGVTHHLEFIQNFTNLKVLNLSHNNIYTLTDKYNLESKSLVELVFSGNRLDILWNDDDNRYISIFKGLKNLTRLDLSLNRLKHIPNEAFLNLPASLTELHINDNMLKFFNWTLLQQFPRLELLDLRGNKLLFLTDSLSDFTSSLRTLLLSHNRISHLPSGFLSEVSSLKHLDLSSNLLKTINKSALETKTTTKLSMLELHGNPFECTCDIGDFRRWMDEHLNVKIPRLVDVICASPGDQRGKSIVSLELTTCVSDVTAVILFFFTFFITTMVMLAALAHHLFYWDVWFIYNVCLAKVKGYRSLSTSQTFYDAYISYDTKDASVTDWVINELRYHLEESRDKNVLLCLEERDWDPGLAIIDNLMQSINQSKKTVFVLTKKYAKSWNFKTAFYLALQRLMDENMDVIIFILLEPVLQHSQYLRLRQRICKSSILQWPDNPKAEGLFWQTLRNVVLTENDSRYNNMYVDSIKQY
Nature of the test: TLR8 inhibition reporter assay (HEK-Blue cells, SEAP reporter, R848 stimulation). Conditions: HEK-Blue cells overexpressing human TLR8, SEAP reporter, R848 15.9 μM; read-out: TLR8 IC50. An outline of the steps:
as §1
(In a reporter assay the amount or activity of a reporter protein is the signal.)

Test [3] has as its target T3, human TLR9 (Homo sapiens, UniProt Q9NR96).
T3 construct: host or cells: HEK-Blue cells
T3 sequence (Q9NR96 26-1032): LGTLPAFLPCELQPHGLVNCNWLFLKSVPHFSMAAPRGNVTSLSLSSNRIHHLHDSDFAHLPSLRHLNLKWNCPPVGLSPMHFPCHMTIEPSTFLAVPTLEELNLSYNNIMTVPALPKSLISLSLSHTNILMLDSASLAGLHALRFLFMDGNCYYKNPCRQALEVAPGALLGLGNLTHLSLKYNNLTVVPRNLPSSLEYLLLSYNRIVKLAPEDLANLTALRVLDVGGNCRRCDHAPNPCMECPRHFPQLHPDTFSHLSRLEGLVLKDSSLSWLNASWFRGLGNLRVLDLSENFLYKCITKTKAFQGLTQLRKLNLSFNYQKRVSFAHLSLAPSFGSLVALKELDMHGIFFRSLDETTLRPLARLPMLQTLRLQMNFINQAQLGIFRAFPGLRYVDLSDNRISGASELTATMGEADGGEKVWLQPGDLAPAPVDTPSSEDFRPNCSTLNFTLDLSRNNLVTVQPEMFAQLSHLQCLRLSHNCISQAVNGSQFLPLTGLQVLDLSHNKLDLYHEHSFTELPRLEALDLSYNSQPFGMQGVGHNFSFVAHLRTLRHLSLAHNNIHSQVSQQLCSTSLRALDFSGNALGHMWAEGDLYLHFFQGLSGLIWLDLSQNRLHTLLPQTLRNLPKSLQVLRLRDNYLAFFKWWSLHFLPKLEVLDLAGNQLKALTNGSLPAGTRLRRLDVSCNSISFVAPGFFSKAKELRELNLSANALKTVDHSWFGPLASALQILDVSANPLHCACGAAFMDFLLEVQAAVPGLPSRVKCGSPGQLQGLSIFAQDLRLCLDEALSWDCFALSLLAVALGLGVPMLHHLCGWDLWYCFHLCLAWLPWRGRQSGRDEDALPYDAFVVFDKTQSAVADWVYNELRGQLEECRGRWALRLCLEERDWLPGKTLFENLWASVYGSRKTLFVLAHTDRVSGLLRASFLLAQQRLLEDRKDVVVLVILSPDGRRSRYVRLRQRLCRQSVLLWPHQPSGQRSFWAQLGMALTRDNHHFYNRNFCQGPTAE
Nature of the test: TLR9 inhibition reporter assay (HEK-Blue cells, SEAP reporter, ODN2006 stimulation). The note with it: HEK-Blue cells overexpressing human TLR9, SEAP reporter, ODN2006 5 nM. An outline of the steps: as §1

What is called IC50 is the concentration at which inhibition is half-maximal.

As for `Cc1c(-c2[nH]c3sc(C4CCC(NC5COC5)CC4)nc3c2C(C)C)cn2ncnc2c1C` (single isomer, unassigned) [Example 184, N-(4-(5-(7,8-dimethyl-[1,2,4]triazolo[1,5-a]pyridin-6-yl)-6-isopropyl-4H-pyrrolo[3,2-d]thiazol-2-yl)cyclohexyl)oxetan-3-amine], the values for the half-inhibitory concentration (IC50) in test [1], in test [2] and in test [3] were 1.01 nM, 0.84 nM and 11.4 µM, respectively.
Take `Cc1c(-c2[nH]c3sc(C4CCC(NC5COC5)CC4)nc3c2C(C)C)cn2ncnc2c1C` (single isomer, unassigned) [Example 185, N-(4-(5-(7,8-dimethyl-[1,2,4]triazolo[1,5-a]pyridin-6-yl)-6-isopropyl-4H-pyrrolo[3,2-d]thiazol-2-yl)cyclohexyl)oxetan-3-amine]: the concentration for half-maximal inhibition (IC50) in test [1] is 7.42 nM; in test [2], 3.38 nM; in test [3], 23 µM.
Take `COC(C)(C)CNC1CCC(c2nc3c(C(C)C)c(-c4cn5ncnc5c(C)c4C)[nH]c3s2)CC1` (single isomer, unassigned) [Example 186, 4-(5-(7,8-dimethyl-[1,2,4]triazolo[1,5-a]pyridin-6-yl)-6-isopropyl-4H-pyrrolo[3,2-d]thiazol-2-yl)-N-(2-methoxy-2-methylpropyl)cyclohexan-1-amine]: the values for the IC50 in test [1], in test [2] and in test [3] were 1.59 nM, 0.21 nM and 5.92 µM, respectively.
The corresponding values for `COC(C)(C)CNC1CCC(c2nc3c(C(C)C)c(-c4cn5ncnc5c(C)c4C)[nH]c3s2)CC1` (single isomer, unassigned) [Example 187, 4-(5-(7,8-dimethyl-[1,2,4]triazolo[1,5-a]pyridin-6-yl)-6-isopropyl-4H-pyrrolo[3,2-d]thiazol-2-yl)-N-(2-methoxy-2-methylpropyl)cyclohexan-1-amine] are 10.4 nM, 4.25 nM and 8.72 µM.
Regarding `COC1CN(C2CCC(c3nc4c(C(C)C)c(-c5cn6ncnc6c(C)c5C)[nH]c4s3)CC2)C1` (single isomer, unassigned) [Example 188, 5-(7,8-dimethyl-[1,2,4]triazolo[1,5-a]pyridin-6-yl)-6-isopropyl-2-(4-(3-methoxyazetidin-1-yl)cyclohexyl)-4H-pyrrolo[3,2-d]thiazole], the concentration for half-maximal inhibition (IC50) in test [1] stood at 0.71 nM; in test [2], 0.58 nM; in test [3], 10.8 µM.
Take `COC1CN(C2CCC(c3nc4c(C(C)C)c(-c5cn6ncnc6c(C)c5C)[nH]c4s3)CC2)C1` (single isomer, unassigned) [Example 189, 5-(7,8-dimethyl-[1,2,4]triazolo[1,5-a]pyridin-6-yl)-6-isopropyl-2-(4-(3-methoxyazetidin-1-yl)cyclohexyl)-4H-pyrrolo[3,2-d]thiazole]: the IC50 in test [1] was determined as 3.35 nM; in test [2], 5.18 nM; in test [3] it was 10 µM.
As to `CCN(C)C1CCC(c2nc3c(C(C)C)c(-c4cn5ncnc5c(C)c4C)[nH]c3s2)CC1` (single isomer, unassigned) [Example 190, 4-(5-(7,8-dimethyl-[1,2,4]triazolo[1,5-a]pyridin-6-yl)-6-isopropyl-4H-pyrrolo[3,2-d]thiazol-2-yl)-N-ethyl-N-methylcyclohexan-1-amine], the half-maximal inhibitory concentration (IC50) in test [1] turned out to be 0.8 nM; in test [2] it was 0.58 nM; in test [3] it was 8.35 µM.
Turning to `CCN(C)C1CCC(c2nc3c(C(C)C)c(-c4cn5ncnc5c(C)c4C)[nH]c3s2)CC1` (single isomer, unassigned) [Example 191, 4-(5-(7,8-dimethyl-[1,2,4]triazolo[1,5-a]pyridin-6-yl)-6-isopropyl-4H-pyrrolo[3,2-d]thiazol-2-yl)-N-ethyl-N-methylcyclohexan-1-amine], the half-inhibitory concentration (IC50) in test [1] turned out to be 1.5 nM; in test [2], 1.79 nM; in test [3], 9.37 µM.
On to `Cc1c(-c2[nH]c3sc(C4CCC(N5CC6(COC6)C5)CC4)nc3c2C(C)C)cn2ncnc2c1C` (single isomer, unassigned) [Example 192, 6-(4-(5-(7,8-dimethyl-[1,2,4]triazolo[1,5-a]pyridin-6-yl)-6-isopropyl-4H-pyrrolo[3,2-d]thiazol-2-yl)cyclohexyl)-2-oxa-6-azaspiro[3.3]heptane], for which the concentration for half-maximal inhibition (IC50) was determined as 1.67 nM in test [1], 0.33 nM in test [2] and 16.2 µM in test [3].
With `Cc1c(-c2[nH]c3sc(C4CCC(N5CC6(COC6)C5)CC4)nc3c2C(C)C)cn2ncnc2c1C` (single isomer, unassigned) [Example 193, 6-(4-(5-(7,8-dimethyl-[1,2,4]triazolo[1,5-a]pyridin-6-yl)-6-isopropyl-4H-pyrrolo[3,2-d]thiazol-2-yl)cyclohexyl)-2-oxa-6-azaspiro[3.3]heptane], the half-maximal inhibitory concentration (IC50) amounted to 1.97 nM in test [1], 4.45 nM in test [2] and 7.63 µM in test [3].
